Columns and labels:
Assay type in all cases: biochemical
[1] = molecular target: Cathepsin L (Homo sapiens, UniProt P07711); assay: Cathepsin L inhibition assay, fluorogenic peptide substrate (selectivity for Cat. S over Cat. L); details: ratio of cathepsin L inhibition constant to cathepsin S inhibition constant
Method: (§1) The optimal substrate for cathepsin L, acetyl-histidine-lysine-phenylalanine-lysine-amino carbamoyl coumarin, was identified from screening a combinatorial library of fluorogenic peptide substrates (Harris, J. L., B. J. Backes, et al. Proc Natl Acad Sci U S A 2000, 97(14), 7754-9). Kinetic measurements are performed in a total reaction volume of 30 μl in 384-well microtiter plates. Cathepsin L, at a final concentration of 0.1 nM (active site), is incubated with the compounds at twelve varying concentrations in a buffer containing 100 mM NaAc (pH5.5), 1 mM EDTA, 100 mM NaCl, 0.01% Brij-35 for 20 minutes at room temperature. Control reactions in the absence of inhibitor are performed in replicates of 24. The reactions are initiated by adding the substrate, acetyl-histidine-lysine-phenylalanine-lysine-amino carbamoyl coumarin, to a final concentration of 20 μM. The rate of substrate hydrolysis is measured by monitoring the increase in fluorescence at an excitation wavelength of 380 nm and an emission wavelength of 450 nm that results from cleavage of the aniline bond in the substrate by the enzyme. The apparent inhibition constants for the compounds are determined from the enzyme progress curves (Kuzmic, P., K. C. Elrod, et al. Anal Biochem 2000, 286(1), 45-50) and are then used to calculate the inhibition constants for competitive inhibitors.
(§2) Selectivity for cathepsin S in the presence of cathepsin isozymes was determined by the ratio of the cathepsin isozyme inhibition constant of a compound of the present invention to the cathepsin S inhibition constant of the same compound. Preferred compounds of the present invention selective for cathepsin S have ratios of greater than 10. More preferred compounds of the present invention selective for cathepsin S have ratios of greater than 100. Most preferred compounds of the present invention selective for cathepsin S have ratios of greater than 1000.

[2] = molecular target: Cathepsin B (Homo sapiens, UniProt P07858); assay: Cathepsin B inhibition assay, fluorogenic peptide substrate (selectivity for Cat. S over Cat. B); details: ratio of cathepsin B inhibition constant to cathepsin S inhibition constant
Method: as §1, with “B, acetyl-histidine-proline-valine-lysine-amino” for “L, acetyl-histidine-lysine-phenylalanine-lysine-amino”, “B,” for “L,”, “1.5” for “0.1”, “acetyl-histidine-proline-valine-lysine-amino” for “acetyl-histidine-lysine-phenylalanine-lysine-amino”, “[…].” for “20 μM.”
as §2

[3] = molecular target: T1, Cathepsin K (Homo sapiens, UniProt P43235); assay: Cathepsin K inhibition assay, fluorogenic peptide substrate (selectivity for Cat. S over Cat. K); details: ratio of cathepsin K inhibition constant to cathepsin S inhibition constant
T1 sequence (P43235 115-329): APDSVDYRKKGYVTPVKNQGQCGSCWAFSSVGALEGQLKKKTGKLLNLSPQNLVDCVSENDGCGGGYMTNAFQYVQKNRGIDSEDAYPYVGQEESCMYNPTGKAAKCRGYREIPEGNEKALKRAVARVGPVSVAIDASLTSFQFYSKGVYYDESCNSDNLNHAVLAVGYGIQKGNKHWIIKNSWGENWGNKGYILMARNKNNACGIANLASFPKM
Method: as §1, with “cathepsin K, acetyl-lysine-histidine-proline-lysine-amino” for “cathepsin L, acetyl-histidine-lysine-phenylalanine-lysine-amino”, “Cathepsin K,” for “Cathepsin L,”, “of 3.5” for “of 0.1”, “substrate, acetyl-lysine-histidine-proline-lysine-amino” for “substrate, acetyl-histidine-lysine-phenylalanine-lysine-amino”, “of 40” for “of 20”
as §2

[4] = molecular target: Cathepsin S (Homo sapiens, UniProt P25774); assay: Cathepsin S inhibition assay, fluorogenic peptide substrate; details: Cathepsin S inhibition constant; pH5.5, 20 minutes preincubation at room temperature; read-out: Ki Cat. S
Sequence of Cathepsin S (P25774 115-331, species assumed): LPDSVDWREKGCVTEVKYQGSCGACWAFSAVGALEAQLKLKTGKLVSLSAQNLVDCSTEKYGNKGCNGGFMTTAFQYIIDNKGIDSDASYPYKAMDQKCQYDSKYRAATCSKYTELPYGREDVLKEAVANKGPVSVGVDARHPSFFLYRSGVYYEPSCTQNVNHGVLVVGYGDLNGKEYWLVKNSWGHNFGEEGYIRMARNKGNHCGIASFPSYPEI
Method: as §1, with “cathepsin S, acetyl-histidine-proline-valine-lysine-amino” for “cathepsin L, acetyl-histidine-lysine-phenylalanine-lysine-amino”, “Cathepsin S,” for “Cathepsin L,”, “of 0.3-3” for “of 0.1”, “substrate, acetyl-histidine-proline-valine-lysine-amino” for “substrate, acetyl-histidine-lysine-phenylalanine-lysine-amino”, “of 50” for “of 20”

Sequence of Cathepsin L (P07711 114-333, species assumed): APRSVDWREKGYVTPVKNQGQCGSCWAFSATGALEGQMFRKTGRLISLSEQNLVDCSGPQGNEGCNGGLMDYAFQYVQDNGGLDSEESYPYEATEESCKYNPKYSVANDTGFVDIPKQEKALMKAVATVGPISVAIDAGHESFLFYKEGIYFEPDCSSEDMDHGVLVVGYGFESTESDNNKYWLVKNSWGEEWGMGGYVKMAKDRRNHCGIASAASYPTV

Selectivity for Cat. S over Cat. L [1]: ++ (++, >100) | Selectivity for Cat. S over Cat. B [2]: ++ (++, >100) | Selectivity for Cat. S over Cat. K [3]: + (+, >10) | Ki [4]: < 1 µM
SMILES: C[C@@H](CNc1ccc(OC(F)F)cc1)NC(=O)O[C@@H](CC1CCCC1)Cn1ccc(C(F)(F)F)n1 [Example 7, 1-(S)-Cyclopentylmethyl-2-(3-trifluoromethyl-pyrazol-1-yl)-ethyl [2-(4-difluoromethoxy-phenylamino)-1-(S)-methyl-ethyl]carbamate]

Source: patent US7256207B2, “Inhibitors of cathepsin S” (IRM LLC, priority 2003, dated 2007)
